Source: US4521430A, “1,5-Benzothiazepin-4-one, their pharmaceutical compositoins, and methods of use” (Tanabe Seiyaku Co., Ltd., priority 1983, dated 1985)
Where a name gives a salt, the structure may show the parent alone.

How the values were obtained:
[1] = tested on: atrioventricular conduction; conditions: known calcium-antagonistic vasodilator; cited from earlier work
calmodulin = calmodulin (Homo sapiens, UniProt P0DP23); experiment: Anti-calmodulin activity: activation of phosphodiesterase activity by calmodulin (Experiment 5); format: biochemical; conditions: pH 7.5, 30° C.; Table 4; read-out: ID50 (concentration for 50% inhibition of the activation of phosphodiesterase activity by calmodulin)
[2] = tested on: vertebral artery blood flow; experiment: Cerebral vasodilating activity: vertebral artery blood flow in anesthetized dogs, injection into vertebral artery (Experiment 1); format: in vivo; conditions: for Cerebral vasodilating activity (potency ratio to papaverin, class): anesthetized male dogs, injected into vertebral artery, Table 1
Description: (§1) For example, when the cerebral vasodilating activity is evaluated by examining vertebral artery blood flow in anesthetized dogs to which a test compound is intraarterially administered, said activity of (+)-cis-2-(4-methoxyphenyl)-3-(2-chloro-4-nitrobenzoyloxy)-5-[2-(dimethylamino)ethyl]-2,3-dihydro-1,5-benzothiazepin-4-(5H)-one fumarate is 4.5 times stronger than that of papaverine. On the other hand, the coronary vasodilating activity of (+)-cis-2-(4-methoxyphenyl)-3-(2-chloro-4-nitrobenzoyloxy)-5-[2-(dimethylamino)ethyl]-2,3-dihydro-1,5-benzothiazepin-4(5H)-one fumarate when examined by the Langendorff method using isolated hearts of guinea pigs is 10 times stronger than that of papaverine.
(§2) (Cerebral vasodilating activity)
Male dogs weighing 10 to 20 kg were anesthetized with sodium pentobarbital (30 mg/kg, intravenous injection). The blood flow in vertebral artery was measured continuously by means of an electromagnetic flowmeter under artificial respiration. A test compound dissolved in an aqueous 5% glucose solution was injected into vertebral artery. The cerebral vasodilating activity of the test compound was estimated in terms of "the potency ratio of said compound to papaverin" which was calculated from the dose-responsecurves thereof.

[3] = tested on: coronary blood flow of the isolated heart; experiment: Coronary vasodilating activity: Langendorff's method, coronary blood flow of isolated heart (Experiment 3); parameters: species or system guinea pig; conditions: for Coronary vasodilating activity (class): isolated guinea pig heart, Langendorff, Table 2
Description: as §1
Langendorff's method was used for testing the effect on the coronary blood flow of the isolated heart of guinea pig (about 280 g). The isolated heart was perfused with Locke-Ringer solution containing 2% of defibrinated rabbit blood, which had been saturated with a mixed gas of 95% O2 and 5% CO2 (30° C.). Perfusion pressure was kept at 40 cm H2 O. A solution of a test compound in an aqueous 5% glucose solution was injected into the perfusing solution at a volume of 0.1 ml per heart. The outflow of the perfusate was measured by means of a drop counter.
The coronary vasodilating activity of the test compound was expressed as "±" if the increase in coronary blood flow is less than 0.5 ml/minute at a dose of 100 μg/heart; "+" if the increase is not less than 0.5 ml/minute at a dose of 100 μg/heart; "++" if the increase is not less than 0.5 ml/minute at a dose of 30 μg/heart; and "+++" if the increase is not less than 0.5 ml/minute at a dose of not more than 10 μg/heart.

platelet aggregation = experiment: Platelet aggregation-inhibiting activity, collagen, platelet-rich plasma (Experiment 4); format: cell-based, Sprague-Dawley rats; parameters: key: -: the test compound showed less than 10% inhibition of platelet aggregation; +: the test compound showed not less than 10% inhibition of platelet aggregation but said percentage inhibition was lower than that of acetylsalicylic acid (100 μg/ml); ++: the test compound showed the platelet aggregation-inhibiting activity at least as strong as that of acetylsalicylic acid (100 μg/ml); conditions: final concentration 100 μg/ml, rat PRP, 37° C., Table 3
Source text: Blood was collected from the abdominal aorta of male Sprague-Dawley rats which were anesthetized with ether. Nine volumes of said blood were mixed with one volume of an aqueous 3.8% (w/v) trisodium citrate solution, and the mixture was centrifuged to give platelet-rich plasma ("PRP") as the supernatant solution. The bottom layer was further centrifuged to give platelet-poor plasma ("PPP") as the supernatant solution. Platelet counts were adjusted to 0.8-1×10^6 /mm^3 for PRP by dilution with PPP. After a mixture of 200 μl of the diluted PRP and 25 μl of a test compound solution (final concentration: 100 μg/ml) was stirred for 2 minutes at 37° C., 25 μl of a collagen solution (Biochim. Biophys. Acta, 186, page 254(1969)) were added thereto. The degree of platelet aggregation was estimated by Born's method (Nature, 194, page 927(1962)) and percentage inhibition of platelet aggregation was calculated therefrom.

vertebral blood flow = experiment: Cerebral vasodilating activity: total increase in vertebral blood flow in anesthetized dogs, intravenous (Experiment 2); format: in vivo; conditions: anesthetized male dogs, 0.2 mg/kg intravenously; increase at peak response x half duration time
Description: as §2
Male dogs weighing 11 to 16 kg (one group: 3 dogs) were anesthetized with sodium pentobarbital (30 mg/kg, intravenous injection). The vertebral blood flow was measured by means of an electromagnetic flowmeter under artificial respiration. A test compound dissolved in an aqueous 5% glucose solution was injected intravenously at a dose of 0.2 mg/kg. The cerebral vasodilating activity of the test compound was estimated in terms of "total increase in vertebral blood flow" which was calculated by multiplying "increase (Δml/minute) in blood flow at peak response" by "half duration time (T 1/2:minute)".

Acute toxicity, oral = conditions: mouse, in vivo, mice, orally
Source text: The compound (I) is further characteristic in that said compound is low in toxicity. For example, the acute toxicity (LD50) of (+)-cis-2-(4-methoxyphenyl)-3-(2-chloro-4-nitrobenzoyloxy)-5-[2-(dimethylamino)ethyl]-2,3-dihydro-1,5-benzothiazepin-4(5H)-one fumarate, when administered to mice orally, is more than 2 g/kg.

[4] = tested on: atrioventricular conduction; experiment: Atrioventricular conduction in anesthetized guinea pigs, intravenous; format: in vivo; conditions: 3 mg/kg intravenously
cerebral ischemia = experiment: Protective effect on cerebral ischemia: recovery of electrocorticogram activity after occlusion of common carotid and vertebral artery; format: in vivo; conditions: rats, 0.1 mg/kg/minute intravenously, within one hour after reestablishment of cerebral blood flow
[5] = tested on: cerebral and/or coronary vasodilating activity; conditions: Japanese Patent Publication Nos. 43784/1971 and 8544/1972; cited from earlier work

SMILES | IC50 (calmodulin) [nM] | Cerebral vasodilating activity (potency ratio to papaverin, class) [2] | Coronary vasodilating activity (class) [3] | Platelet aggregation-inhibiting activity (class) (platelet aggregation) | other results
COc1ccc(CCN(C)CCCC(C#N)(c2ccc(OC)c(OC)c2)C(C)C)cc1OC (stereo not shown) [verapamil, 5-[(3,4-dimethoxyphenethyl)methylamino]-2-(3,4-dimethoxyphenyl)-2-isopropylvaleronitrile] |  |  |  |  | effect on atrioventricular conduction (known) [1]: inhibits atrioventricular conduction to cause the prolongation of atrioventricular conduction time
COc1ccc([C@@H]2Sc3ccccc3N(CCN(C)C)C(=O)[C@@H]2OC(=O)c2ccc(Cl)c([N+](=O)[O-])c2)cc1.O=C(O)C(=O)O [(+)-cis-2-(4-methoxyphenyl)-3-(4-chloro-3-nitrobenzoyloxy)-5-[2-(dimethylamino)ethyl]-2,3-dihydro-1,5-benzothiazepin-4(5H)-one oxalate] | 1400 | +++ (the potency ratio is not less than 3) |  |  | 
CCN(C)CCN1C(=O)[C@H](OC(=O)c2ccc([N+](=O)[O-])cc2Cl)[C@H](c2ccc(OC)cc2)Sc2ccccc21 [(+)-cis-2-(4-methoxyphenyl)-3-(2-chloro-4-nitrobenzoyloxy)-5-[2-(N-methyl-N-ethylamino)ethyl]-2,3-dihydro-1,5-benzothiazepin-4(5H)-one oxalate] | 2100 |  |  |  | 
COc1ccc([C@@H]2Sc3ccccc3N(CCN(C)C)C(=O)[C@@H]2OC(=O)c2ccc(Cl)cc2[N+](=O)[O-])cc1.Cl [(+)-cis-2-(4-methoxyphenyl)-3-(4-chloro-2-nitrobenzoyloxy)-5-[2-(dimethylamino)ethyl]-2,3-dihydro-1,5-benzothiazepin-4(5H)-one hydrochloride] |  | +++ (the potency ratio is not less than 3) | +++ (the increase is not less than 0.5 ml/minute at a dose of not more than 10 μg/heart) |  | 
COc1ccc([C@@H]2Sc3ccccc3N(CCN(C)C)C(=O)[C@@H]2OC(=O)c2ccccc2[N+](=O)[O-])cc1.Cl (racemic) [(±)-cis-2-(4-methoxyphenyl)-3-(2-nitrobenzoyloxy)-5-[2-(dimethylamino)ethyl]-2,3-dihydro-1,5-benzothiazepin-4(5H)-one hydrochloride] |  |  |  | ++ | 
COc1ccc([C@@H]2Sc3ccccc3N(CCN(C)C)C(=O)[C@@H]2OC(=O)c2ccc([N+](=O)[O-])cc2Cl)cc1.O=C(O)/C=C/C(=O)O [(+)-cis-2-(4-methoxyphenyl)-3-(2-chloro-4-nitrobenzoyloxy)-5-[2-(dimethylamino)ethyl]-2,3-dihydro-1,5-benzothiazepin-4(5H)-one fumarate] | 2500 | +++ (the potency ratio is not less than 3) | +++ (the increase is not less than 0.5 ml/minute at a dose of not more than 10 μg/heart) | ++ | total increase in vertebral blood flow (vertebral blood flow): 91 mL; coronary vasodilating activity, times stronger than that of papaverine ([3]; Langendorff method, isolated hearts of guinea pigs): 10 times; LD50 (Acute toxicity, oral): > 2000 mg/kg; disturbance of atrioventricular conduction [4]: did not induce disturbance of atrioventricular conduction; cerebral vasodilating activity, times stronger than that of papaverine ([2]; vertebral artery blood flow, anesthetized dogs, intraarterial): 4.5 times; recovery of electrocorticogram (ECoG) activity (cerebral ischemia): about 50%
COc1ccc([C@@H]2Sc3ccccc3N(CCN(C)C)C(=O)[C@@H]2OC(=O)c2ccc([N+](=O)[O-])c(OC)c2)cc1 [(+)-cis-2-(4-methoxyphenyl)-3-(3-methoxy-4-nitrobenzoyloxy)-5-[2-(dimethylamino)ethyl]-2,3-dihydro-1,5-benzothiazepin-4(5H)-one methanesulfonate] | 2700 |  |  |  | 
COc1ccc([C@@H]2Sc3ccccc3N(CCN(C)C)C(=O)[C@@H]2OC(=O)c2ccc([N+](=O)[O-])c(C)c2)cc1.Cl [(+)-cis-2-(4-methoxyphenyl)-3-(3-methyl-4-nitrobenzoyloxy)-5-[2-(dimethylamino)ethyl]-2,3-dihydro-1,5-benzothiazepin-4(5H)-one hydrochloride] | 2500 | +++ (the potency ratio is not less than 3) | +++ (the increase is not less than 0.5 ml/minute at a dose of not more than 10 μg/heart) | ++ | 
COc1ccc([C@@H]2Sc3ccccc3N(CCN(C)C)C(=O)[C@@H]2OC(=O)c2ccc([N+](=O)[O-])cc2)cc1.O=C(O)/C=C/C(=O)O [(+)-cis-2-(4-methoxyphenyl)-3-(4-nitrobenzoyloxy)-5-[2-(dimethylamino)ethyl]-2,3-dihydro-1,5-benzothiazepin-4(5H)-one fumarate] | 4500 | +++ (the potency ratio is not less than 3) | +++ (the increase is not less than 0.5 ml/minute at a dose of not more than 10 μg/heart) | ++ | 
COc1ccc([C@@H]2Sc3ccccc3N(CCN(C)C)C(=O)[C@@H]2OC(=O)c2ccc([N+](=O)[O-])cc2)cc1.O=C(O)/C=C\C(=O)O (racemic) [(±)-cis-2-(4-methoxyphenyl)-3-(4-nitrobenzoyloxy)-5-[2-(dimethylamino)ethyl]-2,3-dihydro-1,5-benzothiazepin-4(5H)-one maleate] |  |  | +++ (the increase is not less than 0.5 ml/minute at a dose of not more than 10 μg/heart) |  | 
COc1ccc(C2Sc3ccccc3N(CCN(C)C)C(=O)C2OC(=O)c2ccccc2)cc1 (stereo not shown) [2-(4-methoxyphenyl)-3-benzoyloxy-5-[2-(dimethylamino)ethyl]-2,3-dihydro-1,5-benzothiazepin-4(5H)-one] |  |  |  |  | coronary vasodilating activity (known) [5]: have a coronary vasodilating activity
CCN(CC)CCN1C(=O)[C@H](OC(=O)c2ccc([N+](=O)[O-])cc2Cl)[C@H](c2ccc(OC)cc2)Sc2ccccc21.Cl [(+)-cis-2-(4-methoxyphenyl)-3-(2-chloro-4-nitrobenzoyloxy)-5-[2-(diethylamino)ethyl]-2,3-dihydro-1,5-benzothiazepin-4(5H)-one hydrochloride] | 2100 | +++ (the potency ratio is not less than 3) |  |  | 
COc1ccc(C2Sc3ccccc3N(CCN(C)C)C(=O)C2OCc2ccccc2)cc1 (stereo not shown) [2-(4-methoxyphenyl)-3-benzyloxy-5-[2-(dimethylamino)ethyl]-2,3-dihydro-1,5-benzothiazepin-4(5H)-one] |  |  |  |  | coronary vasodilating activity (known) [5]: have a coronary vasodilating activity
